Here are results for five compounds from US4528375A, “Substituted 3,4-diamino-1,2,5-thiadiazoles having histamine H2 -receptor antagonist activity” (Bristol-Myers Company, priority 1984, dated 1985).

One may read the ED50 as the dose that gives a 50% effect, or the effect in half of the subjects.

One test has as its system gastric acid secretion. Nature of the test: Gastric Antisecretory Activity in the Gastric Fistula Rat. Format: in vivo, Male Long Evans rats. As to conditions: sc; for Potency Ratio (cimetidine = 1.0): gastric fistula rat, relative to cimetidine.
The subject of another test is peptic ulcer disease. Conditions: clinical evaluation, Gray et al., Lancet, 1, 8001 (1977); cited from earlier work.

`Cc1cc(CSCCNc2nsnc2N)sc1CN(C)C` [Example 3, 3-Amino-4-{2-[(5-dimethylaminomethyl-4-methyl-2-thienyl)methylthio]ethylamino}-1,2,5-thiadiazole]: the “Potency Ratio (cimetidine = 1.0)” value with gastric acid secretion was ~ 7.

Regarding `CN(C)Cc1ccc(CSCCNc2nsnc2N)o1` [Example 2, 3-Amino-4-{2-[(5-dimethylaminomethyl-2-furyl)methylthio]ethylamino}-1,2,5-thiadiazole], in the test on gastric acid secretion, the “Potency Ratio (cimetidine = 1.0)” value was 4.5.

As to `Nc1nsnc1NCCCOc1cccc(CN2CCCC2)c1` [Example 4, 3-Amino-4-[3-(3-pyrrolidinomethylphenoxy)propylamino]-1,2,5-thiadiazole], the “Potency Ratio (cimetidine = 1.0)” value in the test with gastric acid secretion was determined as 20.

Consider `Nc1nsnc1NCCCOc1cccc(CN2CCCCC2)c1` [Example 1, 3-Amino-4-[3-(3-piperidinomethylphenoxy)propylamino]-1,2,5-thiadiazole], for which the “Potency Ratio (cimetidine = 1.0)” value with gastric acid secretion is 37.

Take `CN/C(=N/CCSCc1nc[nH]c1C)NC#N` [cimetidine, reference compound]: in the test with gastric acid secretion (Rattus norvegicus, read-out: ED50 sc), the median effective dose (ED50) worked out at 3.48 µmol/kg. The “effectiveness in the treatment of peptic ulcer disease” value with peptic ulcer disease was “effective therapeutic agent in the treatment of peptic ulcer disease”.
